Laboratory results taken from ChEMBL document CHEMBL3611995, “Chalcone scaffolds as anti-infective agents: structural and molecular target perspectives” (Eur J Med Chem, 2015).
Values after ≈ are worked out from the molar mass of the structure shown.

Columns and labels:
[1] = system: Trichophyton rubrum; experiment: Antimicrobial activity against wild type Trichophyton rubrum MYA3108; format: functional
[2] = system: Trichophyton rubrum; experiment: Antimicrobial activity against Trichophyton rubrum with deltaTruMDR2 mutation; format: functional
[3] = Inhibition of Saccharomyces cerevisiae chitin synthase-1
[4] = Inhibition of Saccharomyces cerevisiae beta-1,3-glucan synthase
[5] = Inhibition of Trichophyton rubrum FAS
[6] = Inhibition of Trypanosoma brucei trypanopain
[7] = system: Leishmania major; experiment: Anti-leishmanial activity against Leishmania major; format: functional, organism-based
[8] = biological target: Plasmepsin II (Plasmodium falciparum) (UniProt P46925); experiment: (§1) Inhibition of Plasmodium falciparum plasmepsin 2; conditions: concentration not given here
Sequence of Plasmepsin II (Plasmodium falciparum) (P46925 125-453 limits assumed): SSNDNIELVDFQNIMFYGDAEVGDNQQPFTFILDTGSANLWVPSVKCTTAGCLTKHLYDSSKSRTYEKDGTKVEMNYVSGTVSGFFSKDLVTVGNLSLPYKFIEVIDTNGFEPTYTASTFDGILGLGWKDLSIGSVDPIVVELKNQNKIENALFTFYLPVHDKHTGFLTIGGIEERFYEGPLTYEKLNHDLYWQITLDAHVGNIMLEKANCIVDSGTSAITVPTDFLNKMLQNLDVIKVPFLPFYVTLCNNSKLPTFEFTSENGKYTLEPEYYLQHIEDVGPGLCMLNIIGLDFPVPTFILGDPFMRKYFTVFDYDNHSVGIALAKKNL

[9] = Selectivity index, ratio of cytotoxicity for human HeLa cells to IC50 for anti-parasitic activity against chloroquine-resistant Plasmodium falciparum W2; format: toxicity, cell-based; conditions: read-out: Selectivity Index
[10] = system: Trichophyton rubrum; experiment: Antimicrobial activity against Trichophyton rubrum; format: functional
[11] = system: Trichophyton rubrum; experiment: Antimicrobial activity against Trichophyton rubrum clinical isolates; format: functional
[12] = system: Plasmodium falciparum; experiment: Anti-parasitic activity against chloroquine-susceptible Plasmodium falciparum 3D7 assessed as reduction in parasite maturation; format: functional
[13] = Inhibition of Trypanosoma cruzi trans-sialidase
[14] = Inhibition of Plasmodium falciparum falcipain
[15] = system: Plasmodium falciparum; experiment: Inhibition of Plasmodium falciparum GST; conditions: concentration not given here
[16] = system: Leishmania amazonensis; experiment: Anti-leishmanial activity against Leishmania amazonensis intracellular amastigotes; format: functional; conditions: read-out: ED50
[17] = system: Leishmania amazonensis; experiment: Anti-leishmanial activity against Leishmania amazonensis promastigotes; format: functional; conditions: read-out: ED50
[18] = system: Plasmodium falciparum; experiment: Anti-parasitic activity against chloroquine-susceptible Plasmodium falciparum 3D7 assessed as reduction in parasite maturation at 50 ug/ml; format: functional
[19] = system: Plasmodium falciparum; experiment: Anti-parasitic activity against chloroquine-resistant Plasmodium falciparum W2; format: functional, organism-based
[20] = system: Plasmodium falciparum; experiment: Anti-parasitic activity against chloroquine-susceptible Plasmodium falciparum D6; format: functional, organism-based
[21] = Inhibition of new permeation pathway in erythrocytes (unknown origin) at 20 uM by sorbitol-induced hemolysis assay; format: functional, cell-based; conditions: Erythrocyte
[22] = system: Plasmodium falciparum; experiment: Anti-parasitic activity against Plasmodium falciparum; format: functional
[23] = system: Plasmodium falciparum; experiment: Anti-parasitic activity against Plasmodium falciparum assessed as inhibition of parasite development from ring to schizont stage; format: functional
[24] = biological target: Plasmepsin II (Plasmodium falciparum, UniProt P46925); experiment: as §1
Sequence of Plasmepsin II (P46925 whole entry): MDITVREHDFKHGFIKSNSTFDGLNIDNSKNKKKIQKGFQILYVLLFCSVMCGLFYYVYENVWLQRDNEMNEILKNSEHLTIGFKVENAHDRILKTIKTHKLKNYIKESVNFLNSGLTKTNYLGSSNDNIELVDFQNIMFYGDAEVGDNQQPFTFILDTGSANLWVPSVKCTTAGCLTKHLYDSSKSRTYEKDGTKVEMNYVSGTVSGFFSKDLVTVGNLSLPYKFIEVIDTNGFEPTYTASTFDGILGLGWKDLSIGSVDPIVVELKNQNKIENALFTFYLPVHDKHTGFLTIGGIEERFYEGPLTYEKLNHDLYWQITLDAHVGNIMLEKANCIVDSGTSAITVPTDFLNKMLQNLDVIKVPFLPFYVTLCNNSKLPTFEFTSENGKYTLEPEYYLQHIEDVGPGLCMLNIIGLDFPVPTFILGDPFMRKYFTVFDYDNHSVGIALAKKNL

[25] = Inhibition of beta-hematin formation; format: physicochemical
[26] = system: Enterovirus; experiment: Antiviral activity against Rhinovirus infected in human HeLa cells; format: functional, organism-based
[27] = Cytotoxicity against human HeLa cells; format: cell-based
[28] = Inhibition of Plasmodium falciparum succinate-ubiquinone oxidoreductase
[29] = system: Leishmania donovani; experiment: Anti-leishmanial activity against Leishmania donovani infected in hamsters assessed as reduction in parasite load in spleen at 20 mg/kg/day, ip for 6 consecutive days; format: functional
[30] = Inhibition of Plasmodium falciparum Cytochrome b-c1 complex
[31] = system: Leishmania donovani; experiment: Anti-leishmanial activity against Leishmania donovani infected in hamsters assessed as reduction in parasite load in liver at 5 to 150 mg/kg/day, po for 6 consecutive days; format: functional
[32] = system: Leishmania donovani; experiment: Anti-leishmanial activity against Leishmania donovani infected in hamsters assessed as reduction in parasite load in spleen at 5 to 150 mg/kg/day, po for 6 consecutive days; format: functional
[33] = system: Leishmania donovani; experiment: Anti-leishmanial activity against Leishmania donovani infected in hamsters assessed as reduction in parasite load in liver at 20 mg/kg/day, ip for 6 consecutive days; format: functional

Compound: O=C(/C=C/c1ccccc1)c1ccccc1 [CHALCONE]
- MIC [1]: 7.5 µg/mL (≈ 36 µM)
- MIC [2]: 1.9 µg/mL (≈ 9.12 µM)
- IC50 [3]: 0.02 µg/mL (≈ 0.096 µM)
- IC50 [4]: 0.14 µg/mL (≈ 0.672 µM)
- IC50 [5]: 68.23 µg/mL (≈ 328 µM)

Compound: O=C(/C=C/c1cc2ccccc2nc1Cl)c1ccc(Cl)c(Cl)c1Cl
- IC50 [6]: 0.24 µM

Compound: O=C(/C=C/c1ccc(O)cc1)c1ccccc1 [4-HYDROXYCHALCONE]
- IC50 [7]: 4 µM

Compound: COc1cc(/C=C/C(=O)c2ccc(NC(=O)Nc3cccc(C(=O)/C=C/c4cc(OC)c(OC)c(OC)c4)c3)cc2)cc(OC)c1OC
- inhibition [8]: 87%

Compound: COc1ccc(/C=C/C(=O)c2ccccc2)cc1S(=O)(=O)N1CCOCC1
- selectivity ratio [9]: 9

Compound: COc1cc(O)c(C(=O)/C=C/c2ccccc2Cl)c(OC)c1
- MIC [10]: 12.5 µg/mL (≈ 39.2 µM)
- MIC50 [11]: 12.5 µg/mL (≈ 39.2 µM)
- MIC90 [11]: 25 µg/mL (≈ 78.4 µM)

Compound: CCOc1ccc2nc(Cl)c(/C=C/C(=O)c3cc(Br)cc(Cl)c3O)cc2c1
- MIC [12]: 10 µg/mL (≈ 21.4 µM)

Compound: Cc1ccc(S(=O)(=O)Nc2ccc(C(=O)/C=C/c3ccc(O)c(O)c3)cc2)cc1
- IC50 [13]: 0.9 µM

Compound: COc1cc2cc(/C=C/C(=O)c3ccc(Cl)cc3Cl)cnc2cc1OC
- IC50 [14]: 19 µM

Compound: COc1ccc(/C=C/C(=O)c2ccc(N3CCCC3)cc2)cc1
- inhibition [15]: 84%

Compound: COc1cc(O)c(C(=O)/C=C/c2ccccc2)c(O)c1
- EC50 [16]: 24 µg/mL (≈ 88.8 µM)
- EC50 [17]: 0.5 µg/mL (≈ 1.85 µM)

Compound: Cc1cccc(C(=O)/C=C(\I)c2cc3ccccc3nc2Cl)c1O
- MIC [18]: 50 µg/mL (≈ 111 µM)

Compound: O=C(/C=C\c1ccnc2ccccc12)c1cc(Cl)ccc1Cl
- IC50 [19]: 0.2 µM
- IC50 [20]: 0.2 µM

Compound: O=C(/C=C/c1cnc2ccccc2c1)c1cc(Cl)ccc1Cl
- IC50 [19]: 0.2 µM
- IC50 [20]: 0.2 µM

Compound: COc1cc2c(cc1/C=C/C(=O)c1ccccc1)[C@H]1CC[C@]3(C)[C@@H](Oc4cc(OC)c(OC)c(OC)c4)CC[C@H]3[C@@H]1CC2
- inhibition [21]: > 70%
- GI50 [22]: < 5 µM
- MIC [23]: 2.07 µM (≈ 1.21 µg/mL)

Compound: COc1ccc(/C=C/C(=O)c2ccc(-n3nnc4ccccc43)cc2)cc1
- inhibition [15]: 84%

Compound: COc1ccc(C(=O)/C=C/c2ccc(C(F)(F)F)cc2)c(OC)c1
- IC50 [24]: 6 µM

Compound: Cc1ccc(S(=O)(=O)Nc2cccc(C(=O)/C=C/c3ccc(O)c(O)c3)c2)cc1
- IC50 [13]: 2.5 µM

Compound: COc1ccc(C(=O)/C=C/c2ccc(F)cc2F)c(OC)c1
- IC50 [24]: 6 µM

Compound: O=C(/C=C/c1cc2ccccc2nc1Cl)c1cc(Br)cc(Cl)c1O
- MIC [12]: 10 µg/mL (≈ 23.6 µM)

Compound: O=C(/C=C/c1ccc(Cl)cc1)c1ccc(N2CCCCC2)cc1
- inhibition [15]: 84%

Compound: O=C(/C=C/c1cccnc1)c1ccc(NS(=O)(=O)c2cc(Cl)ccc2Cl)cc1
- IC50 [25]: 0.5 µM

Compound: CCOc1cc(O)c(C(=O)/C=C/c2ccc(OC)cc2)c(OC)c1
- IC50 [26]: 0.03 µg/mL (≈ 0.0914 µM)
- CC50 [27]: 30 µg/mL (≈ 91.4 µM)

Compound: COc1ccc(/C=C/C(=O)c2ccc(NS(=O)(=O)c3cc(Cl)ccc3Cl)cc2)c(OC)c1OC
- IC50 [25]: 0.48 µM

Compound: COc1ccc(/C=C/C(=O)c2ccccc2O)c(OC)c1
- IC50 [7]: 4.54 µM

Compound: C=CC(C)(C)c1cc(/C=C/C(=O)c2ccc(O)cc2)c(OC)cc1O [LICOAGROCHACONE A]
- IC50 [28]: ≥ 100 µM
- inhibition in vivo at 20 mg/kg/day [29]: > 96%
- IC50 [30]: 10.8 µM
- inhibition (INH) [31]: >65%
- inhibition (INH) [32]: >65%
- inhibition in vivo at 20 mg/kg/day [33]: > 96%
